Key:
Experiment in all cases: TLR expression in primary human microglia after stimulation, semi-quantitative RT-PCR
Assay type in all cases: cell-based
Details in all cases: aggregated peptide 5 µM, 6 h or 24 h
[1] = test system: TLR2
Method: (§1) Primary human microglia, oligodendrocytes and astrocytes used in this study were isolated from the human white matter samples obtained from the patients listed in Table 1, as previously described (Bajramovic et al., 2000a and 2000b; De Groot et al., 2000). Briefly, brain tissues dissected from corpus callosum or subcortical white matter were collected and blood vessels were removed. After a 20-min digestion in 0.25 % (w/v) trypsine (Sigma, St. Louis, MO) and 0.1 mg/ml DNAse (Boehringer Mannheim, Mannheim, Germany) the cell suspension was gently triturated and washed with DMEM/HAM-F10 medium containing 10 % (v/v) FCS and antibiotic supplements. After passage through a 100-µm filter, myelin was removed by Percoll gradient centrifugation. Erythrocytes were lysed by a 15-min incubation on ice with 155 mM NH4Cl, 1 mM KHCO3, 0.2 % (w/v) BSA.
(§2) Primary cultures of microglia, astrocytes and oligodendrocytes were set up in DMEM/HAM-F10 medium containing 10 % (v/v) FCS and antibiotic supplements. Recombinant human granulocyte-macrophage colony stimulating factor (rhGM-CSF, PeproTech Inc, USA) was added to microglial cultures every 3 days at a final concentration of […]. Cells were analyzed for TLR expression after 10-14 days following the start of the culture.
(§3) Total cellular RNA was isolated from human glia cells using RNAZol™B (Campro scientific, Veenendaal, The Netherlands) and 2.5 µg RNA was reverse transcribed, using reverse transcription system (Promega, Madison, USA). PCR amplifications were performed on 1 µl copy DNA and 49 µl PCR mix (40 µl milliQ + 5 µl MgCl2 (see below for concentration) + 1 µl 10 mM dNTP mix + 1 µl 20 pmol/µl primer + 1 µl 20 pmol/µl anti sense primer and 0.2 µl taq polymerase). For β-actin, TLR1, TLR2, TLR3, TLR5, TLR6, TLR7 and TLR 9, 22 mM MgCl2 was used, for TLR4, 15 mM MgCl2 and for TLR8, 30 mM MgCl2. Amounts of TLR-encoding mRNA for each TLR were calculated by comparing the yield of each amplicon after 40 cycles to that for β-actin, and by determining the amounts of β-actin encoding mRNA in each sample by competitive quantitative RT-PCR as described previously (Bajramovic et al., 2000a; Bajramovic et al., 2000b).
(§4) Amyloid-β-protein-derived peptide 1-42 (Bachem, Bubendorf, Switzerland) was dissolved in water at 1 mM and kept at 37°C for 1 week to allow for aggregation to occur. The aggregated peptide was added to cultured microglia at a final concentration of 5 µM and TLR expression was determined as described above after varying periods of incubation time. As another CNS-derived stimulant, human recombinant alpha B-crystallin (prepared by TNO Prevention and Health, Leiden) was used at a final concentration of 15 µg/mL.

[2] = test system: TLR3
Method: as §1, §2, §3, §4

[3] = test system: other TLR
Method: as §1, §2, §3, §4

[4] = listed as Amyloid β protein-derived peptide 1-42
[5] = listed as amyloid β-protein derived peptide 1-42

In the case of “amyloid β protein-derived peptide 1-42: Amyloid-β-protein-derived peptide 1-42 (Bachem), dissolved in water at 1 mM and kept at 37°C for 1 week to allow aggregation”, the “levels of TLR2-encoding mRNA” value [1] is reported as “rapid mild inductive effect”, the “levels of TLR2-encoding mRNA” value [1, 4] is reported as “elevated expression” and the “levels of TLR2-encoding mRNA” value [1, 5] is reported as “strong effects”. The “levels of TLR3-encoding mRNA” value [2] was “stronger inductive effects”, the “levels of TLR3-encoding mRNA” value [2, 4] was “elevated expression” and the “levels of TLR3-encoding mRNA” value [2, 5] was “strong effects”. The “expression of mRNA encoding other TLR” value [3] was “not influenced” and the “expression of mRNA encoding other TLR” value [3, 4] was “not affecting”.

Reference: patent publication EP1288226A1, “Modification of the expression levels of Toll-like receptor familiy members for influencing neurodegeneration and neuroprotection in the human central nervous system” (NEDERLANDSE ORGANISATIE VOOR …, priority 2001, dated 2003)
